Consider three compounds from patent US11998543B2, “Pharmaceutical composition comprising aldehyde inhibitor and anticancer agent for treatment of brain cancer” (Industry-Academic Cooperation Foundation, Yonsei University, priority 2018, dated 2024).

Data set [1] deals with U87 cells. The experiment in a line: WST cytotoxicity / cell viability assay (EZ-Cytox), 72 h drug treatment. It counts as cell-based. The following applies: for Measured value (cell viability) / Value expressed relative to administration alone: U87; for Measured value (cell viability): G and P 10 μM each; for Measured value (cell viability) / Cancer cell killing (cytotoxicity), comparison in words: 72 h; for Value expressed relative to administration alone: viability with anticancer drug alone set to 1; for Cancer cell killing (cytotoxicity), comparison in words: spherical U87 cells, compared with single agents or other combinations, PTX and 5-FU at high concentration (H) vs TMZ alone. As for the experimental part: (§1) Cultured tumorsphere-forming glioblastoma cells (GBM TS) were seeded into 96-well plates at a density of 10^4 cells/well and treated for 72 hours with a drug-containing medium prepared in a Preparation Example (a control group was treated with general culture medium), and then cytotoxicity to the cancer cells was measured by WST assay using EZ-Cytox reagent (DoGenBio, Seoul, Korea) according to the manufacturer's protocol.
(§2) For the present disclosure, two types of tumorsphere (TS)-forming glioblastoma (GBM) cells were used. TS13-64 cells are primary tumor cells derived from a GBM patient, and established from a new GBM tissue sample under the approval of the Institutional Review Board of the Yonsei University College of Medicine (approval Nos: 4-2012-0212 and 4-2014-0649). As U87 cells, spherical cells prepared by culturing the U87MG cell line under TS culture conditions were used. For TS culture, cells were treated with DMEM/F-12 medium containing 2 wt % 1×B27, 0.02 wt % bFGF (20 ng/ml), 0.02 wt % EGF (20 ng/ml) and 50 U/ml penicillin/[…] streptomycin (100×, Gibco, Invitrogen Korea, Seoul, South Korea), and all in vitro experiments were performed under TS culture conditions.
(§3) For use in in vitro experiments, gossypol (G) and phenformin (P, Sigma-Aldrich) were dissolved in DMSO and H2O, respectively, at a concentration of 10 μM. The anticancer drug temozolomide (TMZ, Sigma-Aldrich) was dissolved in DMSO and used at a concentration of 250 μM. As controls for the anticancer drug TMZ for co-administration with gossypol and phenformin, other anticancer drugs, paclitaxel (PTX) and fluorouracil (5-FU), were used. […] That is, in the same manner as TMZ, paclitaxel was prepared and used at a low concentration of 2 nM and a high concentration of 5 nM, and fluorouracil was prepared and used at a low concentration of 50 μM and a high concentration of 100 μM (low concentration is indicated by L, and high concentration is indicated by H).
(§4) Cultured tumorsphere-forming glioblastoma cells (GBM TS) were seeded into 96-well plates at a density of 10^4 cells/well and treated for 72 hours with a drug-containing medium prepared in the Preparation Example (a control group was treated with general culture medium), and then cytotoxicity to the cancer cells was measured by WST assay using EZ-Cytox reagent (DoGenBio, Seoul, Korea) according to the manufacturer's protocol.
(§5) Evaluation of cytotoxicity to cancer cells and the sphere-forming ability of cells was performed in the same manner as in Example 1.
(§6) In order to more easily compare these effects, the cell viability value obtained upon administration of each anticancer drug alone was set to 1, and the cell viability value obtained upon co-administration was expressed relative to the cell viability value obtained upon administration of each anticancer drug alone.

For data set [2], the system named is TS13-64 cells. The description is as above. The following applies: for Measured value (cell viability) / Value expressed relative to administration alone: TS13-64; for Measured value (cell viability): G and P 10 μM each; for Measured value (cell viability) / Cancer cell killing (cytotoxicity), comparison in words: 72 h; for Value expressed relative to administration alone: viability with anticancer drug alone set to 1; for Cancer cell killing (cytotoxicity), comparison in words: TS13-64 cells, compared with single agents or other combinations, PTX and 5-FU at high concentration (H) vs TMZ alone. It counts as cell-based, human. As for the experimental part:
as §1, §2, §3, §4, §5, §6

Setting [3] is: high concentration (H): PTX 5 nM, 5-FU 100 μM.
[4] abbreviates: low concentration (L): PTX 2 nM, 5-FU 50 μM.

`Cn1nnc2c(C(N)=O)ncn2c1=O` [TMZ, temozolomide]: in data set [1] (TMZ 250 μM), the “Measured value (cell viability)” value is reported as 0.879 and the “Value expressed relative to administration alone” value was found to be 1.000. In data set [2] (TMZ 250 μM), the “Measured value (cell viability)” value is listed as 0.781 and the “Value expressed relative to administration alone” value is 1.000.
Turning to `CC(=O)O[C@H]1C(=O)[C@@]2(C)[C@H]([C@H](OC(=O)c3ccccc3)[C@]3(O)C[C@H](OC(=O)[C@H](O)[C@@H](NC(=O)c4ccccc4)c4ccccc4)C(C)=C1C3(C)C)[C@]1(OC(C)=O)CO[C@@H]1C[C@@H]2O` [PTX, paclitaxel], the “Measured value (cell viability)” value in data set [1] (setting [3]) is given as 0.720; in data set [1] (setting [4]) it was 0.947; in data set [2] (setting [3]), 0.675; in data set [2] (setting [4]), 0.764. The “Value expressed relative to administration alone” value in data set [1] (setting [3]), in data set [1] (setting [4]), in data set [2] (setting [3]) and in data set [2] (setting [4]) was 1.000 throughout. Further, the “Cancer cell killing (cytotoxicity), comparison in words” value in data set [1] and in data set [2] was “higher” each time.
On to `O=c1[nH]cc(F)c(=O)[nH]1` [5FU, fluorouracil], for which the “Measured value (cell viability)” value came to 0.804 in data set [1] (setting [3]), 0.980 in data set [1] (setting [4]), 0.756 in data set [2] (setting [3]) and 0.826 in data set [2] (setting [4]). Besides, the “Value expressed relative to administration alone” value in data set [1] (setting [3]), in data set [1] (setting [4]), in data set [2] (setting [3]) and in data set [2] (setting [4]) was 1.000 in each case. Moreover, the “Cancer cell killing (cytotoxicity), comparison in words” value in data set [1] and in data set [2] was “higher” throughout.
